Paper PMC3674182 (European journal of medicinal chemistry, 2013)
In brackets after ≈: the same amount, converted by molar mass.

Assays:
[1] = tested on: intracellular amastigote form of Leishmania; details: cited from earlier work
[2] = tested on: Leishmania donovani axenic amastigotes; assay: in vitro antileishmanial activity, axenic amastigotes; assay type: cell-based; details: 72 h, read-out: L. donovani IC50, Amastigotes
[3] = tested on: methicillin-resistant S. aureus (MRSA, ATCC 33591); assay: in vitro antibacterial activity; assay type: cell-based; details: Staphylococcus aureus, ATCC33591|MRSA, read-out: MIC, MRS

Row | Molecule | activity against the intracellular amastigote form of Leishmania [1] | further results
1 | conodurine | strong activity | 
2 | N-demethylconodurine | strong activity | 
3 | N=C(N)c1ccc(OCCCCCOc2ccc(C(=N)N)cc2)cc1 [Pentamidine] |  | IC50 [2]: 2900 nM
4 | Oc1ccc(C(c2c[nH]c3ccc(I)cc23)c2c[nH]c3ccc(I)cc23)cc1 [8a, 5,5′-Diiodo-3,3′-(4-hydroxyphenyl-methanediyl)-bisindole] |  | MIC [3]: 2 to 4.3 µM (≈ 1.18 to 2.54 µg/mL)
